pIC50, pKi: −log10 of the molar value.
Legend:
[1] = target: T1, S. cerevisiae Acs1 (acetyl CoA synthetase) (Saccharomyces cerevisiae, UniProt Q01574); assay: hydroxylamine-coupled; format: biochemical
T1 sequence (Q01574 1-713): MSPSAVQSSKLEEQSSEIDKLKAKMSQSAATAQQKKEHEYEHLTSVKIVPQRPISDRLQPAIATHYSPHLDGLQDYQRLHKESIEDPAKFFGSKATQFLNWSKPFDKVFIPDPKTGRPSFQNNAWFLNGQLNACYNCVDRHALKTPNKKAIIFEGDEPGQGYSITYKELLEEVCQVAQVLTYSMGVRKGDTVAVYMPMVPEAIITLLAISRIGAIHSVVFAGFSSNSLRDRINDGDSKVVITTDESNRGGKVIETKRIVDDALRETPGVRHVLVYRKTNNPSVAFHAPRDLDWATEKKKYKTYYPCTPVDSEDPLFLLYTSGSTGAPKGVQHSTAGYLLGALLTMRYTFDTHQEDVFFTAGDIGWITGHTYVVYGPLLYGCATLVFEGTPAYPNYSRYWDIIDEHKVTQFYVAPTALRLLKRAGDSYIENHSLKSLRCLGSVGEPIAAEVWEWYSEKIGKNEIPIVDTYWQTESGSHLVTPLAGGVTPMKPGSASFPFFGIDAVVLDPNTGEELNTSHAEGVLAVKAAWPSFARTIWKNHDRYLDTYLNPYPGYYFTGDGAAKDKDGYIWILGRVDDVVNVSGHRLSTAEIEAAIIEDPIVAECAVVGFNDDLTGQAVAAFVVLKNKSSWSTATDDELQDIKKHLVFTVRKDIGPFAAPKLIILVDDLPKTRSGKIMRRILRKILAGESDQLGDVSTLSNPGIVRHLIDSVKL

[2] = target: T2, human ACCS2 (ACSS2, acetyl CoA synthetase) (Homo sapiens, UniProt Q9NR19); assay: biochemical
[3] = target: T1, S. cerevisiae Acs1 (acetyl CoA synthetase); assay: Km determination in hydroxamic acid enzyme assay; format: biochemical
[4] = target: T2, human ACCS2 (ACSS2, acetyl CoA synthetase)

T2 sequence (Q9NR19 whole entry): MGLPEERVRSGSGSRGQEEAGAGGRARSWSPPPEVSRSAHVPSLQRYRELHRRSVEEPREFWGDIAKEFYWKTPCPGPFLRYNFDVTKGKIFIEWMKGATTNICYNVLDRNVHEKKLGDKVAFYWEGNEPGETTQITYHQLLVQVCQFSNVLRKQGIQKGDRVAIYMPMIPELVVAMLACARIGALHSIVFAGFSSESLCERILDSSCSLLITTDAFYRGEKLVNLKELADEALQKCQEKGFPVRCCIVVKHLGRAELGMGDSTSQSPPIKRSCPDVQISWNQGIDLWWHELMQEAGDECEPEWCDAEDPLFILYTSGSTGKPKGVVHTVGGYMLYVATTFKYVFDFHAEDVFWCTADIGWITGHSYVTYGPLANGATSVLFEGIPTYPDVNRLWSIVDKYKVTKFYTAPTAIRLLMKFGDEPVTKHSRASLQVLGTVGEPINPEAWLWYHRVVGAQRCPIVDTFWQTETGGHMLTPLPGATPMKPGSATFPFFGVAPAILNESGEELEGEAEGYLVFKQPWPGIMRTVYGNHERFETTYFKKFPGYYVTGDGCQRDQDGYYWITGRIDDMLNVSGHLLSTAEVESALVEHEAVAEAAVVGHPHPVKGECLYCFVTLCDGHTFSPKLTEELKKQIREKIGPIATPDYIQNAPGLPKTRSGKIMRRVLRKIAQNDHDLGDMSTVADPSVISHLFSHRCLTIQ

| SMILES | pKi [1] | pIC50 [2] | Km [3] [µM] | Km [4] [µM] |
| --- | --- | --- | --- | --- |
| NCC(=O)Nc1ccc(-n2nc(C(F)(F)F)cc2-c2ccc3c(ccc4ccccc43)c2)cc1 [AR-12] | ~5.57 | > 4.00 | – | – |
| Nc1ncnc2c1ncn2[C@@H]1O[C@H](COP(=O)(O)OP(=O)(O)OP(=O)(O)O)[C@@H](O)[C@H]1O [ATP] | – | – | 900 to 1000 | 900 to 1000 |
